From ChEMBL document CHEMBL1149899 (J Med Chem, 2008)

How the values were obtained:
[1] = Inhibition of ATPase activity of yeast Hsp90; parameters: species or system Saccharomyces cerevisiae
[2] = Binding affinity to yeast Hsp90 by isothermal titration calorimetry; parameters: species or system Saccharomyces cerevisiae

**Q.** With COC1=C2C[C@@H](C)C[C@H](OC)[C@H](O)[C@@H](C)/C=C(\C)[C@H](OC(N)=O)[C@@H](OC)/C=C\C=C(/C)C(=O)NC(=CC1=O)C2=O [GELDANAMYCIN] as the compound, how does the IC50 [1] read?
**A.** 7 µM

**Q.** What about the Kd [2] of the same compound?
**A.** 1.2 µM
